Measurements as given in patent publication EP0541497A1, “Prolineamide derivatives as enhancers of learning processes and memory and pharmaceutical compositions containing same” (Sigma-Tau Industrie Farmaceutiche Riunite S.p.A., priority 1991, dated 1993).

Experiments:
ECS-induced amnesia = assay: Passive avoidance test, amnesia induced by electroconvulsive shock (ECS); assay type: in vivo, Male CDI mice; conditions: percentage of amnesia reversal, given 30 minutes before training, retention 24 hours later
Description: In order to assess the antiamnesic activity the passive avoidance test in mince was used.
Male CDI mice weighing 25-26 g (charles River, Germany) fed on a normal diet, were used.
The compounds were administered i.p.; doses equimolar to 9.0 and 0.9 mg piracetam kg ⁻¹ were used.
The water-soluble compounds were dissolved in saline; the insoluble ones were dissolved in dimethylsulfoxide and then diluted in 2% Tween 80, ratio 1:4.
The apparatus for passive avoidance conditioning was a black plastic chamber (42 x 42 cm, height 40 cm), provided with a floor constructed of metal that could be electrified. From the front wall extended a white runway, 30 cm long and 10 cm wide provided with side walls 12 cm high, which led into the box through a guillotine door.
The animals, 30 minutes following treatment, were placed on the runways. After one minute of adaptation, the door was raised and the time employed by the animal to enter the darkened with all four feet, was recorded.
Upon entry, the guillotine door was lowered and 3 seconds thereafter the rods were electrified, 0.24 mA for 2 seconds. The mouse was then removed from the chamber and immediately administered and electroshock delivered through spring clips attached to the ears (square wave, intensity 20 mA, amplitude 0.6 msec, duration 0.5 s, frequency 50 Hz). Immediately thereafter the animal was placed in the housing cage. Retention was assessed 24 hours later by placing the animal on the runways and again evaluating the latency in entering the chamber, using an end-point of 300 s (crf. Brammer, loc. cit.).
In each experiment, two groups of animals in addition to the treated ones were used, that were defined as follows: • (1) ceiling control animals (treated with placebo and not subjected to ECS amnesia treatment) to ensure that these animals not treated with the amnesia agent remembered the task; • (2) base-line control animals (treated with placebo and subjected to ECS amnesia treatment) to ensure that ECS produced amnesia in the animals not treated with the compounds of the present invention.
The sum ΣAij encompasses all the possible pairs obtained by combining each term Xi with each term Xj.

[1] = Behavioural profile (Irwin test); assay type: in vivo, male CDI Mice; conditions: mouse, in vivo; oral, 90 mg/kg (equimolar to piracetam), monitored for 6 hours; read-out: death rate
Description: (§1) The behavioural profile was assessed in male CDI Mice (Charles River, Italy) weighing 22-24 g, using the Irwin test (IRWIN S., Drug screening and evaluation procedures; 136, 123-128, 1962). The animals had been caged under normal conditions and kept fasting for the last 18 hours.
(§2) Following administration of the compounds, the behaviour of the animals was monitored for 6 hours. The compounds were suspended in 10% arabic gum and orally administered at doses equimolar to 90, 23, 5.4 and 1.4 mg piracetam/10mL/kg of body weight.
(§3) The animals of the control groups were administered 10% arabic gum (10mL/kg, orally).

male CDI Mice = assay: Behavioural profile (Irwin test); assay type: in vivo; conditions: oral, the other doses (equimolar to 23, 5.4 and 1.4 mg piracetam/10mL/kg), monitored for 6 hours
Description: as §1, §2, §3

[2] = relative to oxiracetan; cited from earlier work
[3] = 0.9 mg/kg (i.p., dose equimolar to 0.9 mg piracetam kg-1)
[4] = 9mg/kg (i.p., dose equimolar to 9.0 mg piracetam kg-1)

Compound	%AR (ECS-induced amnesia; [3]) [%]	%AR (ECS-induced amnesia; [4]) [%]	mortality at 6 h [1] [%]	toxicity (male CDI Mice)	doses for nootropic activity, times as high as those of oxiracetan [2]
O=C([C@@H]1CCCN1C(=O)OCc1ccccc1)N1CCN(c2cccc(Cl)c2)CC1 [ST 792, (S)-1-[N-(BENZYLOXYCARBONYL)-PROLYL]-4-(3-CHLOROPHENYL)-PIPERAZINE]	26	0			
NC(=O)CN1CCCC1=O [Piracetam, reference compound]	0	0			
CC(C)N(CCNC(=O)[C@@H]1CCCN1C=O)C(C)C [ST 849, (S)-1-[N-(FORMYL)-PROLYL]-2.2(DIISOPROPYL)-ETHYLENDIAMINE]	3	59			
CC(C)N(CCNC(=O)[C@@H]1CCCN1C(=O)OCc1ccccc1)C(C)C [ST 691, (S)-1-[N-(BENZYLOXYCARBONYL)-PROLYL]-2,2(DIISOPROPYL)-ETHYLENDIAMINE]	52	0	100	non toxic	
O=C1CC[C@@H](C(=O)O)N1 [L-pyroglutamic acid]					5-10 times
O=C(NCCO)[C@@H]1CCCN1C(=O)OCc1ccccc1 [ST 704, (S)-N-[N-(BENZYLOXYCARBONYL)-PROLYL]-ETHANOLAMINE]	0	46			
